The test system of one experiment is MV-4-11 cells. In words: MV-4-11 proliferation EC50 assay (CellTiter-Glo). The class given is cell-based. As to conditions: Homo sapiens, MV4-11, 48 h, read-out: MV-4-11 proliferation EC50, ave. ± S.D. As to the method: Human biphenotypic B myelomonocytic leukemia MV-4-11 cells (ATCC, Manassas, Va.) were treated with test compounds at 2e5 cells/ml in IMDM medium containing 10% (v/v) FBS (Life Technologies, Grand Island, N.Y.) and 1×Pen/Strep Amphotericin B (Lonza, Allendale, N.J.). Compounds were tested at 25 μM down by ⅓ in a 9 point serial dilution series. Cells were incubated for 48 h at 37° C. in a humidified atmosphere at 5% CO2. MV-4-11 cell proliferation was then indirectly determined via cellular ATP content using the CellTiter-Glo® Luminescent Cell Viability Assay (Promega, Madison, Wis.) as per the manufacturer's instructions. Briefly, experimental plates were equilibrated at room temperature for 30 minutes. An equal volume of CellTiter-Glo® reagent was added to each well and incubated for 15 minutes at room temperature. Luminescent signal was read using the Wallac 1420 Victor^2 multilabel microplate reader (Perkin Elmer, Waltham, Mass.). EC50 values were determined using GraphPad Prism software v5.04.

The subject of experiment [1] is TLR2 signaling in primary human umbilical vein endothelial cells. In words: Cytokine response to TLR2 agonism (Pam3CysK4) in primary HUVEC (ELISA). The class given is cell-based. Particulars: for IL-8: 5 μM inhibitor. An excerpt:
It has been reported in the literature that that ERK5 mediates TLR2-dependent inflammatory signaling in several cell types including human umbilical vein endothelial cells (HUVEC). See Wilhelmsen et al., J Biol Chem. 2012; 287:26478-94. Wilhelmsen et al. further reported that MEK1 negatively regulates TLR2 signaling in HUVECs, with pharmacological inhibition of MEK1 augmenting (IL-6, G-CSF, GM-CSF) or not changing (IL-8) pro-inflammatory cytokine release in response to TLR2 stimulation.
In this example, the following commercially available inhibitors were tested:
The results were compared with test compound 61.
Pooled primary human umbilical vein endothelial cells (HUVEC) were obtained from Lonza (Allendale, N.J.) and maintained in either complete EGM-2 defined media (Lonza) or Medium 200 supplemented with Low Serum Growth Supplement (Life Technologies, Grand Island, N.Y.). Cells at low passage (<5) were seeded at 4e5 cells/ml and allowed to adhere overnight at 37° C. in a humidified atmosphere at 5% CO2. Cells were pre-treated with test compounds for 1 h prior to TLR2 or TLR4 stimulation. To test for the effects of TLR2 agonism, the TLR2 agonist peptide Pam3CysK4 (Santa Cruz Biotechnology, Dallas, Tex.) was used at 10 μg/ml. PHC-SKKK (Enzo Life Sciences, Farmingdale, N.Y.) served as the negative control peptide. To test for the effects of TLR4 agonism, LPS from E. coli 0111:B4 (EMD Millipore, Billerica, Mass.) was used at 100 ng/ml. Cells were incubated for 22 hr, after which the supernatant was collected and analyzed for cytokine concentrations by ELISA (Life Technologies). Absorbance at 450 nm was read using the Wallac 1420 Victor^2 multilabel microplate reader (Perkin Elmer, Waltham, Mass.).
For orientation: In an ELISA, binding on a coated surface is turned into a signal by an enzyme label.

A further experiment addresses T1, TAF1L (Homo sapiens, UniProt Q8IZX4).
T1 construct: made in house; host or cells: E. coli host derived from the BL21 strain (T7 phage lysate)
In words: Bromodomain binding assay: TAF1L. How it is done:
(§1) T7 phage strains displaying bromodomains were grown in parallel in 24-well blocks in an E. coli host derived from the BL21 strain. E. coli were grown to log-phase and infected with T7 phage from a frozen stock (multiplicity of infection=0.4) and incubated with shaking at 32° C. until lysis (90-150 minutes). The lysates were centrifuged (5,000×g) and filtered (0.2 μm) to remove cell debris. […] The liganded beads were blocked with excess biotin and washed with blocking buffer (SeaBlock (Pierce), 1% BSA, 0.05 Tween 20, 1 mM DTT) to remove unbound ligand and to reduce non-specific phage binding. […] Test compounds (T62 and 46) were prepared as 1000× stocks in 100% DMSO and subsequently diluted 1:10 in monoethylene glycol (MEG) to create stocks at 100× the screening concentration (resulting stock solution is 10% DMSO/90% MEG). The compounds were then diluted directly into the assays such that the final concentration of DMSO and MEG were 0.1% and 0.9%, respectively. All reactions were performed in polystyrene 96-well plates in a final volume of 0.135 ml. […] The bromodomain concentration in the eluates was measured by qPCR. Compounds were assayed for binding activity against a panel of 40 bromodomain-containing proteins.

In another experiment the target is T2, TAF1 (Homo sapiens, UniProt P21675).
T2 construct: made in house; host or cells: E. coli host derived from the BL21 strain (T7 phage lysate)
T2 sequence (P21675 1519-1628 limits assumed): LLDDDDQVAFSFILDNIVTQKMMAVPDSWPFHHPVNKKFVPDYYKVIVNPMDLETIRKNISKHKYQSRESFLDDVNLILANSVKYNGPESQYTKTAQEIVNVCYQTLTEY
In words: Bromodomain binding assay: TAF1. How it is done:
as §1

Like-named read-outs stand apart in the source and are kept apart here.

T1 sequence (Q8IZX4 1517-1626 limits assumed): as the sequence (P21675 1519-1628 limits assumed) above, with V46M, M51V, V102I, L107I counted along it

Turning to `CCOc1cc(C(=O)N2CCC(N3CCN(C)CC3)CC2)ccc1Nc1cc2c(cn1)N(C)C(=O)c1ccccc1N2C` [Compound 61], the EC50 in the experiment with MV-4-11 cells was determined as 0.7 ± 0.05 µM. Also, the “IL-8” value in experiment [1] (+10 μg/ml PHC-SKKK (negative control peptide), 22 hr) worked out at 0 ± 17 pg/mL; in experiment [1] (+10 μg/ml Pam3CysK4, 22 hr), 133 ± 9 pg/mL. For the same compound, in experiment [1] (summary of Table 22), the “IL-8 response to TLR2 (Pam3CysK4) stimulation, in words” value is “reduced the IL-8 response”.

As a reminder, the Kd is the free concentration of one partner at which half of the binding sites on the other are occupied at equilibrium, for simple one-to-one binding. In the case of `CCOc1cc(C(=O)N[C@H]2CC[C@H](O)CC2)ccc1Nc1cc2c(cn1)N(C)C(=O)c1ccccc1N2C` [Compound T62], the Kd on TAF1L (read-out: Kd (nM) TAF1L) was 19000 nM; on TAF1L (read-out: Kd for binding to TAF1L), greater than 20000 nM; at TAF1 (read-out: Kd (nM) TAF1), 12000 nM; on TAF1 (read-out: Kd for binding to TAF1), greater than 20000 nM.

Values taken from patent US20170008888A1 (KYORIN PHARMACEUTICAL CO., LTD., priority 2014, published 2017).
